Test results published in article PMC6222927, “Aminobenzosuberone Scaffold as a Modular Chemical Tool for the Inhibition of Therapeutically Relevant M1 Aminopeptidases” (Molecules : A Journal of Synthetic Chemistry and Natural …, 2018).
pKi: −log10 of the molar value.

Tests used:
P. falciparum rPfAM17 = target: T1, P. falciparum rPfAM17 (Plasmodium falciparum, UniProt Q8IL11); assay: rPfAM17 inhibition, Leu-pNA substrate, Dixon plots; assay type: biochemical
T1 construct: made in house; host or cells: Escherichia coli Rosetta 2 (DE3)
T1 sequence (Q8IL11 1-605): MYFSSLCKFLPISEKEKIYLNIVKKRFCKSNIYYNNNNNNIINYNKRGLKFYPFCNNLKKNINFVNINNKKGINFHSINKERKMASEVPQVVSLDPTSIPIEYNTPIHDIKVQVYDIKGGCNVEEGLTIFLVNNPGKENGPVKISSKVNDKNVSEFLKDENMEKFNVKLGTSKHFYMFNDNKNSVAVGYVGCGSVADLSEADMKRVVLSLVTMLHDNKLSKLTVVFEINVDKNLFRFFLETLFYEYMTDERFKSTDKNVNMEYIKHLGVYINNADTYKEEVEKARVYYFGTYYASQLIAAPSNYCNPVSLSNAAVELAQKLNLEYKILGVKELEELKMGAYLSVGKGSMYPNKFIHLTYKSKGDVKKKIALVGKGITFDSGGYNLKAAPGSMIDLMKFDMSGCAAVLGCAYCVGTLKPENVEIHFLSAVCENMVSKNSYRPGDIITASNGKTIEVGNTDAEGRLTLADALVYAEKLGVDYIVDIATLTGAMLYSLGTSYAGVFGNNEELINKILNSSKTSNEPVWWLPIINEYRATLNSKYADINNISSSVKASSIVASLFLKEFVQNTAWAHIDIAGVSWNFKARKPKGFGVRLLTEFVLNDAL
Description: Tests were carried out on HP/Agilent UV-Visible diode array spectrophotometer 8453 (HP/Agilent, Santa Clara, CA, USA), at 30 °C in Tris HCl 50 mM pH 7.4 for rPfAM1 and pH 8 for rPfAM17, with a final DMSO concentration of 1%. […]. […] Initial velocities were measured with increasing concentrations of inhibitors and Ki values were determined by Dixon plots in triplicate.

[1] = target: aminopeptidase from A. proteolytica (AAP); parameters: method as in PMID 21843945; settings: ref 58; cited from earlier work
[2] = target: human leukotriene A4 hydrolase (rHsLTA4H); parameters: method as in PMID 21843945; settings: ref 58; cited from earlier work

Measured: pKi

NC1CCc2c(Br)cccc2CC1=O (stereo not drawn) [21e]
< 4.00: all assays above
